From patent US6492416B1, “4,5-diaryl-3(2H)-furanone derivatives as cyclooxygenase-2 inhibitors” (Pacific Corporation, priority 1999, dated 2002) come the findings set out here.

For data set [1], the target named is T1, COX-1 (Mus musculus, UniProt P22437).
T1 sequence (P22437 27-602): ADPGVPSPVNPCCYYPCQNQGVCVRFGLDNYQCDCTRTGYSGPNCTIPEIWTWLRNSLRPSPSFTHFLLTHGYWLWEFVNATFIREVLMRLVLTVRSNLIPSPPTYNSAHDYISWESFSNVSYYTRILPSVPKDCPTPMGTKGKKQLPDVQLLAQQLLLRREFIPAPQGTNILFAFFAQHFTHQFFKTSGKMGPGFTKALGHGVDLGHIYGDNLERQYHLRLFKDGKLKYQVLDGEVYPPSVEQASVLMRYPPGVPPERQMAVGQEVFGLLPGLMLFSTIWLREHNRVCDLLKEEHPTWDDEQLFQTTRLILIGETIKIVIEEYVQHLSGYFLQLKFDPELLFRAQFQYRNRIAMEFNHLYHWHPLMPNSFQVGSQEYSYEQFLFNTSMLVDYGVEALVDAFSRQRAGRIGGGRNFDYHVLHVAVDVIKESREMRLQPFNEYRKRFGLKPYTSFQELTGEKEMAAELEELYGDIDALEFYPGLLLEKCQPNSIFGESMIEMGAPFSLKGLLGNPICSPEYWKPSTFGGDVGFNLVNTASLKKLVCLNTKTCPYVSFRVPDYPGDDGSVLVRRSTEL
As to the kind of experiment: Evaluation of COX-1 activity: PGE2 formation in mouse peritoneal macrophages without aspirin and LPS treatment. The data set is classed as cell-based. Particulars: for IC50: read-out: IC50, μg/ml COX-1 (converted). The protocol: (§1) Evaluation of in vitro COX-2 and COX-1 Activity [J. Pharmacol. Exp. Ther. 166, 96 (1969)]
(§2) The abdominal skin of a C57BL/6 mouse was sanitized with 70% aqueous ethanol, and was removed without damaging the peritoneum. 5 ml of cold phosphate buffer solution (PBS) was then injected into the abdominal cavity. After a minute, the peritoneal fluid containing the macrophages was collected using a syringe and a needle. The collected fluid was centrifuged for 5 min at 1500 rpm to afford pellets of cells. The pellets were then dispersed in the RPMI-1640 culture medium containing 100 units/ml penicillin and 100 μg/ml streptomycin.
(§3) The pellets dispersed as above were treated with 500 μM aspirin in order to knock out the activity of the COX-1 enzymes in the cells. The suspension was then diluted with the RPMI-1640 medium to contain 1×10^6 cells/ml. 100 μl of the suspension was added to each well of a 96-well ELISA plate. Then the plate was incubated for 2 hrs at 37° C. under 5% CO2 in order to fix the macrophages onto the plate. The cells, which were not fixed onto the plate were removed by washing with PBS two times. The purity of macrophages obtained thereby was confirmed by differential counting. The RPMI-1640 medium containing 3% fetal bovine serum albumin was added to each well of the plate, which was followed by stimulation with 10 μg/ml lipopolysaccharide (LPS). Usually 5×10^5 cells/ml were present by this preparation. The LPS-treated suspensions were incubated for 16 hours at 37° C. under 5% CO2 to induce COX-2. Then the culture medium was removed and the macrophages were washed two times with PBS. Then 130 μl RPMI-1640 culture medium was added to each well and the macrophage solutions were incubated at 37° C. for 10 minutes, which was followed by the treatment with 10 μM arachidonic acid and an appropriate amount of compounds of this invention. The plate was incubated for another 10 minutes. The upper solution was collected using a micropipette and was subjected to determination of PGE2 amount in the solution. The amount of PGE2 present in the collected solution was determined either by a known radio-immuno assay or by a known enzyme-immunoassay [Methods in Enzymol. 86, 258 (1982); Methods in Enzymol. 187, 24 (1990)]. The extent of COX-2 inhibition by a compound of the present invention was calculated by assuming, that the amount of PGE2 formed with the treatment of 10 μg/ml arachidonic acid was used is the maximum possible amount of PGE2, and that the amount of PGE2 formed without the treatment of arachidonic acid is the minimum possible amount of PGE2.
In the evaluation of COX-1 inhibitory activity by a compound of the present invention, the same procedures employed for evaluation of COX-2 activity were employed, except omitting the following two steps: 1) the treatment with aspirin for knockout of COX-1 activity and 2) treatment with LPS for induction of COX-2.
(§4) In order to determine IC50 for a compound of this invention, enzymatic activities were measured at multiple concentrations of compounds of this invention around IC50 of the compound. Usually enzymatic activities at 4˜5 concentrations were measured to calculate out IC50 for a compound of this invention.

The target of data set [2] is T2, COX-2 (Mus musculus, UniProt Q05769).
T2 sequence (Q05769 18-604): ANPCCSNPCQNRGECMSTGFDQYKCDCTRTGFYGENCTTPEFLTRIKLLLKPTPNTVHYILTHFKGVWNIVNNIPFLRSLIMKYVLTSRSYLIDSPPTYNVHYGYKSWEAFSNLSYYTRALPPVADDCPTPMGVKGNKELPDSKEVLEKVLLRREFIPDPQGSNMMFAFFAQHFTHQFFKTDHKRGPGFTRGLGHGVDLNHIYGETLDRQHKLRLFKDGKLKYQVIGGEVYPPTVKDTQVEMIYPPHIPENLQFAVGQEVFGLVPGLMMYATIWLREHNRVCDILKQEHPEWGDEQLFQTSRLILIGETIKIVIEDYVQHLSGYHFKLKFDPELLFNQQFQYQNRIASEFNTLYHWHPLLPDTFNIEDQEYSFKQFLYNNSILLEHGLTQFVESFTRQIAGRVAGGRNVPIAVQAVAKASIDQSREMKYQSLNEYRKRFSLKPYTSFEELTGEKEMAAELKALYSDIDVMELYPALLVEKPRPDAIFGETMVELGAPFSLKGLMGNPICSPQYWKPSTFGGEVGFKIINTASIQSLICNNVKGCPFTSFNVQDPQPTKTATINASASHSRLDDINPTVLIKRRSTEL
Description: Evaluation of COX-2 activity: PGE2 formation in aspirin-treated, LPS-stimulated mouse peritoneal macrophages. Particulars: for IC50: read-out: IC50, μg/ml COX-2 (converted). The data set is classed as cell-based. On the procedure:
as §1, §2
as §3, with “The purity of macrophages obtained thereby was confirmed by differential counting.” left out, “Usually 5×10^5 cells/ml were present by this preparation.” left out
as §4

In brackets after ≈: the same amount, converted by molar mass. Bounds are passed on as bounds.

The melting point is the temperature, or range, at which the solid turns liquid.

For the compound `CC1(C)OC(c2ccc(S(C)(=O)=O)cc2)=C(c2ccc(C(C)(C)C)cc2)C1=O` [Example 76], the melting point lay within 142 to 143 °C. In addition, the “IC50, μg/ml COX-1” value in data set [1] was 50 µg/mL (≈ 125 µM). In data set [2], the “IC50, μg/ml COX-2” value is 0.5 µg/mL (≈ 1.25 µM).
For `CC1(C)OC(c2ccc(S(C)(=O)=O)cc2)=C(c2ccc(-c3ccccc3)cc2)C1=O` [Example 77] the same measures were 150 to 153 °C, 5 µg/mL (≈ 11.9 µM) and 0.003 µg/mL (≈ 0.00717 µM).
For `CC(C)c1cccc(C2=C(c3ccc(S(C)(=O)=O)cc3)OC(C)(C)C2=O)c1` [Example 86] the same measures were 83 to 84 °C, 30 µg/mL (≈ 78 µM) and 0.03 µg/mL (≈ 0.078 µM).
`Cc1ccc(F)cc1C1=C(c2ccc(S(C)(=O)=O)cc2)OC(C)(C)C1=O` [Example 94] yielded a melting point of 159 to 160 °C. For the same compound, the “IC50, μg/ml COX-1” value in data set [1] was 5 µg/mL (≈ 13.4 µM). Moreover, the “IC50, μg/ml COX-2” value in data set [2] turned out to be 0.05 µg/mL (≈ 0.134 µM).
`CCCc1ccc(C2=C(c3ccc(S(C)(=O)=O)cc3)OC(C)(C)C2=O)cc1` [Example 96] had a melting point of 99 to 100 °C. Moreover, the “IC50, μg/ml COX-1” value in data set [1] was determined as 3 µg/mL (≈ 7.8 µM). Further, in data set [2], the “IC50, μg/ml COX-2” value worked out at 0.02 µg/mL (≈ 0.052 µM).
For `CCCCc1ccc(C2=C(c3ccc(S(C)(=O)=O)cc3)OC(C)(C)C2=O)cc1` [Example 97] the same measures were 84 to 85 °C, 5 µg/mL (≈ 12.5 µM) and 0.002 µg/mL (≈ 0.00502 µM).
For `CC1(C)OC(c2ccc(S(C)(=O)=O)cc2)=C(c2cc(F)ccc2F)C1=O` [Example 103], the melting point lay within 141 to 142 °C. Also, in data set [1], the “IC50, μg/ml COX-1” value was found to be 20 µg/mL (≈ 52.9 µM). In data set [2], the “IC50, μg/ml COX-2” value worked out at 0.03 µg/mL (≈ 0.0793 µM).
On to `CC1(C)OC(c2ccc(S(C)(=O)=O)cc2)=C(c2ccc(O)cc2)C1=O` [Example 104, 2,2-Dimethyl-4-(4-hydroxyphenyl)-5-{4-(methylsulfonyl)phenyl}-3(2H)-furanone], for which the melting point fell in the range of 150 to 152 °C. Further, the “IC50, μg/ml COX-1” value in data set [1] was found to be 100 µg/mL (≈ 279 µM). Further, the “IC50, μg/ml COX-2” value in data set [2] worked out at 0.3 µg/mL (≈ 0.837 µM).
Regarding `CC1(C)OC(c2ccc(S(C)(=O)=O)cc2)=C(c2ccccc2O)C1=O` [Example 105], the melting point is 182 to 183 °C. Also, the “IC50, μg/ml COX-1” value in data set [1] was 50 µg/mL (≈ 140 µM). For the same compound, the “IC50, μg/ml COX-2” value in data set [2] was found to be 0.03 µg/mL (≈ 0.0837 µM).
For `CC1(C)OC(c2ccc(S(C)(=O)=O)cc2)=C(c2ccc(C=O)s2)C1=O` [Example 121] the same measures were 168 to 170 °C, 30 µg/mL (≈ 79.7 µM) and 0.2 µg/mL (≈ 0.531 µM).
For `Cc1ccc(C2=C(c3ccc(S(C)(=O)=O)cc3)OC(C)(C)C2=O)s1` [Example 122], the melting point is 141 to 142 °C. Further, the “IC50, μg/ml COX-1” value in data set [1] was 3 µg/mL (≈ 8.28 µM). Further, the “IC50, μg/ml COX-2” value in data set [2] amounted to 0.03 µg/mL (≈ 0.0828 µM).
Compound `CC1(C)OC(c2ccc(S(N)(=O)=O)cc2)=C(c2ccc(Cl)c(Cl)c2)C1=O` [Example 127] showed a melting point of 208 to 209 °C. Besides, in data set [1], the “IC50, μg/ml COX-1” value was 0.12 µg/mL (≈ 0.291 µM). Further, in data set [2], the “IC50, μg/ml COX-2” value was 0.001 µg/mL (≈ 0.00243 µM).
`COc1cccc(C2=C(c3ccc(S(N)(=O)=O)cc3)OC(C)(C)C2=O)c1` [Example 135] yielded a melting point of 259 to 260 °C. In data set [1], the “IC50, μg/ml COX-1” value was more than 10 µg/mL. Besides, the “IC50, μg/ml COX-2” value in data set [2] is 0.055 µg/mL (≈ 0.147 µM).
`CC1(C)OC(c2ccc(S(N)(=O)=O)cc2)=C(c2ccc(F)c(F)c2)C1=O` [Example 138]: the melting point was in the range of 210 to 211 °C. In addition, in data set [1], the “IC50, μg/ml COX-1” value amounted to 1.94 µg/mL (≈ 5.11 µM). The “IC50, μg/ml COX-2” value in data set [2] came out at 0.0067 µg/mL (≈ 0.0177 µM).
For `CC1(C)OC(c2ccc(S(N)(=O)=O)cc2)=C(c2cc(Cl)cc(Cl)c2)C1=O` [Example 149] the same measures were 209 to 210 °C, 1.01 µg/mL (≈ 2.45 µM) and 0.0087 µg/mL (≈ 0.0211 µM).
For `CC1(C)OC(c2ccc(S(N)(=O)=O)cc2)=C(c2ccc(O)cc2)C1=O` [Example 151], the melting point fell in the range of 164 to 165 °C. Also, in data set [1], the “IC50, μg/ml COX-1” value is more than 10 µg/mL. Moreover, in data set [2], the “IC50, μg/ml COX-2” value worked out at 0.0188 µg/mL (≈ 0.0523 µM).
For `CC1(C)OC(c2ccc(S(N)(=O)=O)cc2)=C(c2ccco2)C1=O` [Example 160] the same measures were 156 to 157 °C, more than 10 µg/mL and 0.057 µg/mL (≈ 0.171 µM).
For `CSc1ccc(C2=C(c3ccccc3)C(=O)C(C)(C)O2)cc1` [Example 167] the same measures were 109 to 110 °C, 50 µg/mL (≈ 161 µM) and 3 µg/mL (≈ 9.66 µM).
`CCC1(C)OC(c2ccc(S(C)(=O)=O)cc2)=C(c2ccccc2F)C1=O` (stereo not drawn) [Example 188] showed a melting point of 108 to 109 °C. For the same compound, the IC50 in data set [1] is 80.1 µM. In data set [2], the IC50 was 0.801 µM.
For `CCC1(C)OC(c2ccc(S(C)(=O)=O)cc2)=C(c2cccc(C)c2)C1=O` (stereo not drawn) [Example 193] the same measures were 48 to 49 °C, 8.1 µM and 0.081 µM.
